Structures can show the parent of a compound that is named as a salt.
Key:
Assay type in all cases: biochemical
[1] = test system: Human plasma; assay: Human plasma anticoagulation, activated partial thromboplastin time (APTT); conditions: concentration required to double the APTT, linear extrapolation
Description: (§1) Dog plasma and rat plasma is obtained from conscious mixed-breed hounds (either sex, Hazelton-LRE, Kalamazoo, Mich., U.S.A.) or from anesthetized male Sprague-Dawley rats (Harlan Sprague-Dawley, Inc., Indianapolis, Ind., U.S.A.) by venipuncture into 3.8 percent citrate. Fibrinogen is prepared from in-date ACD human blood as the fraction I-2 according to previous procedures and specifications. […] Human fibrinogen is also purchased as 98 percent pure/plasmin free from American Diagnostica, Greenwich, Conn. Coagulation reagents ACTIN, Thromboplastin, and Human plasma are from Baxter Healthcare Corp., Dade Division, Miami, Fla. Bovine thrombin from Parke-Davis ([…], Mich.) is used for coagulation assays in plasma.
(§2) Coagulation assay procedures are as previously described. […] A CoAScreener coagulation instrument (American LABor, Inc.) is used for all coagulation assay measurements. The prothrombin time (PT) is measured by adding 0.05 mL saline and 0.05 mL Thromboplastin-C reagent to 0.05 mL test plasma. The activated partial thromboplastin time (APTT) is measured by incubation of 0.05 mL test plasma with 0.05 mL Actin reagent for 120 seconds followed by 0.05 mL CaCl2 (0.02M). The thrombin time (TT) is measured by adding 0.05 mL saline and 0.05 mL thrombin (10 NIH units/mL) to 0.05 mL test plasma. The compounds of Formula I are added to human or animal plasma over a wide range of concentrations to determine prolongation effects on the APTT, PT, and TT assays. Linear extrapolations are performed to estimate the concentrations required to double the clotting time for each assay.

[2] = test system: Human plasma; assay: Human plasma anticoagulation, prothrombin time (PT); conditions: concentration required to double the PT, linear extrapolation
Description: as §1, §2

[3] = test system: Human plasma; assay: Human plasma anticoagulation, thrombin time (TT); conditions: concentration required to double the thrombin time, linear extrapolation
Description: as §1, §2

Compound | Human Plasma Anticoagulation 2× Clotting time (ng/mL) APTT [1] | Human Plasma Anticoagulation 2× Clotting time (ng/mL) PT [2] | Human Plasma Anticoagulation 2× Clotting time (ng/mL) TT [3]
Cl.Cl.N=C(N)c1ccc(CNC(=O)[C@@H]2CCCN2C(=O)[C@H](N)CC2CCCCC2)cc1 [Example 51, D-Cha-Pro-p-NHCH2 C6 H4 C(NH)NH2.2HCl] | 48 ng/mL | 110 ng/mL | 2 ng/mL
CCS(=O)(=O)N[C@H](Cc1ccccc1)C(=O)N1CCC[C@H]1C(=O)NCc1ccc(NC(=N)N)cc1 [Example 34, EtSO2 -D-Phe-Pro-p-NHCH2 C6 H4 NHC(NH)NH2.HCl] | 4,900 ng/mL | 5,500 ng/mL | 530 ng/mL
O=C(O)CN[C@H](CC1CCCCC1)C(=O)N1CCC[C@H]1C(=O)NCC1CCNCC1 [Example 53, HO2 CCH2 -D-Cha-Pro-4-NHCH2 -piperidine.HCl] | 33,800 ng/mL | 34,500 ng/mL | 1,400 ng/mL
D-hPro-Pro-p-NHCH2 C6 H4 C(NH)NH2.HCl [Example 17] | 370 ng/mL | 400 ng/mL | 26 ng/mL
1-Piq-Pro-p-NHCH2 C6 H4 C(NH)NH2.2HCl [Example 18] | 79 ng/mL | 170 ng/mL | 7 ng/mL
O=C(O)CN[C@H](CC1CCCCC1)C(=O)N1CCC[C@H]1C(=O)NCCCC1CCNCC1 [Example 55, HO2 CCH2 -D-Cha-Pro-4-NHCH2 CH2 CH2 -piperidine.HCl] | > 91,000 ng/mL | > 91,000 ng/mL | 55,800 ng/mL
CCS(=O)(=O)N[C@H](CC1CCCCC1)C(=O)N1CCC[C@H]1C(=O)NCc1ccnc(N)c1.Cl [Example 83, EtSO2 -D-Cha-Pro-4-NHCH2 -2-aminopyridine.HCl] | 1,000 ng/mL | 1,300 ng/mL | 91 ng/mL
HOOCCH2 -D-Phe-Pro(4-cis-isoamyl)-p-NHCH2 C6 H4 C(NH)NH2.HCl [Example 50] | 460 ng/mL | 420 ng/mL | 35 ng/mL
Cl.N=C(N)C1=CNC(CNC(=O)[C@@H]2CCCN2C(=O)[C@@H](CC2CCCCC2)NCC(=O)O)CC1 (stereo partly drawn) [Example 68, HO2 CCH2 -D-Cha-Pro-2-NHCH2 -5-amidino-5,6-dehydro-piperidine.HCl] | 49 ng/mL | 190 ng/mL | 4. ng/mL
CCS(=O)(=O)N[C@H](Cc1ccccc1)C(=O)N1CCC[C@H]1C(=O)NCCc1cccc(C(=N)N)c1.Cl [Example 27, EtSO2 -D-Phe-Pro-m-NHCH2 CH2 --C6 H4 C(=NH)NH2.HCl] | 27,800 ng/mL | 27,000 ng/mL | 1,940 ng/mL
N=C(N)c1cccc(CCNC(=O)[C@@H]2CCCN2C(=O)[C@@H]2NCC[C@@H]3CCCC[C@@H]32)c1 [Example 29, 1-Piq-Pro-m-NHCH2 CH2 --C6 H4 C(=NH)NH2.2HCl] | 9,800 ng/mL | 15,800 ng/mL | 750 ng/mL
Cl.N=C(N)c1cccc(CNC(=O)[C@@H]2CCCN2C(=O)[C@H](N)Cc2ccccc2)c1 [Example 16, D-Phe-Pro-m-NHCH2 C6 H4 C(NH)NH2.0.75HCl] | 8,600 ng/mL | 8,500 ng/mL | 650 ng/mL
N=C(N)c1ccc(CNC(=O)[C@@H]2CCCN2C(=O)[C@H](NCC(=O)O)C2CCCCC2)cc1 [Example 86, HOOCCH2 -D-Chg-Pro-p-NHCH2 C6 H4 C(NH)NH2.HCl] | 81 ng/mL | 180 ng/mL | 4 ng/mL
CCS(=O)(=O)N[C@H](CC1CCCCC1)C(=O)N1CCC[C@H]1C(=O)NCc1ccc(N)nc1.Cl [Example 84, EtSO2 -D-Cha-Pro-5-NHCH2 -2-aminopyridine.HCl] | 1,500 ng/mL | 1,900 ng/mL | 110 ng/mL
CCS(=O)(=O)N[C@H](Cc1ccccc1)C(=O)N1CCC[C@H]1C(=O)NCCCc1ccc(C(=N)N)cc1 [Example 30, EtSO2 -D-Phe-Pro-p-NHCH2 CH2 CH2 --C6 H4 C(=NH)NH2.HCl] | 14,000 ng/mL | 14,400 ng/mL | 1,000 ng/mL
CCS(=O)(=O)N[C@H](CC1CCCCC1)C(=O)N1CCC[C@H]1C(=O)NCc1ccc(C(=N)N)cc1.Cl [Example 80, EtSO2 -D-Cha-Pro-4-NHCH2 C6 H4 C(NH)NH2.HCl] | 40 ng/mL | 130 ng/mL | 4 ng/mL
Cl.N=C(N)c1ccc(CNC(=O)CN(CCc2ccccc2)C(=O)CNCC(=O)O)cc1 [Example 89, HOOCCH2 -Gly-N-C6 H5 CH2 CH2 Gly-p-NHCH2 C6 H4 C(NH)NH2.HCl] | 51,000 ng/mL | 37,000 ng/mL | 570 ng/mL
N=C(N)c1ccc(CNC(=O)[C@@H]2C[C@@H]3CCCC[C@@H]3N2C(=O)[C@@H](Cc2ccccc2)NCC(=O)O)cc1 (relative stereo) [Example 47, HOOCCH2 -D-Phe-cis-Ohi-p-NHCH2 C6 H4 C(NH)NH2.HCl] | 140 ng/mL | 270 ng/mL | 12. ng/mL
Cl.Nc1cc(CNC(=O)[C@@H]2CCCN2C(=O)[C@@H](CC2CCCCC2)NCC(=O)O)ccn1 [Example 73, HO2 CCH2 -D-Cha-Pro-4-NHCH2 -2-aminopyridine.HCl] | 340 ng/mL | 330 ng/mL | 21 ng/mL
Cl.N=C(N)N1CCC(CNC(=O)[C@@H]2CCCN2C(=O)[C@@H](CC2CCCCC2)NCC(=O)O)CC1 [Example 56, HO2 CCH2 -D-Cha-Pro-4-NHCH2 -1-amidinopiperidine.HCl] | 160 ng/mL | 200 ng/mL | 5 ng/mL
Cl.Nc1ccc(CNC(=O)[C@@H]2CCCN2C(=O)[C@@H](CC2CCCCC2)NCC(=O)O)cn1 [Example 74, HO2 CCH2 -D-Cha-Pro-5-NHCH2 -2-aminopyridine.HCl] | 420 ng/mL | 350 ng/mL | 20 ng/mL
N=C(N)c1ccc(CNC(=O)[C@@H]2CCCN2C(=O)[C@@H](CC2CCCCC2)NCC(=O)O)nc1 [Example 66, HO2 CCH2 -D-Cha-Pro-2-NHCH2 -5-amidinopyridine.HCl] | 180 ng/mL | 270 ng/mL | 7.9 ng/mL
Cl.N=C(N)c1ccc(CNC(=O)[C@@H]2CCCN2C(=O)[C@@H](CC2CCCCC2)NCCC(=O)O)cc1 [Example 52, HOOCCH2 CH2 -D-Cha-Pro-p-NHCH2 C6 H4 C(NH)NH2.HCl] | 80 ng/mL | 170 ng/mL | 6 ng/mL
CS(=O)(=O)CC(=O)N[C@H](CC1CCCCC1)C(=O)N1CCC[C@H]1C(=O)NCc1ccc(C(=N)N)cc1 [Example 92, MeSO2 CH2 CO-D-Cha-Pro-p-NHCH2 C6 H4 C(NH)NH2.HCl] | 210 ng/mL | 340 ng/mL | 8.9 ng/mL
CCS(=O)(=O)N[C@H](Cc1ccccc1)C(=O)N1[C@H](C(=O)NCc2ccc(C(=N)N)cc2)C[C@@H]2CCCC[C@@H]21 (relative stereo) [Example 45, EtSO2 -Phe-cis-Ohi-p-NHCH2 C6 H4 C(NH)NH2.HCl] | 200 ng/mL | 330 ng/mL | 8 ng/mL
CCS(=O)(=O)N[C@H](Cc1ccccc1)C(=O)N1CCC[C@H]1C(=O)NCc1cccc(NC(=N)N)c1 [Example 36, EtSO2 -D-Phe-Pro-m-NHCH2 C6 H4 NHC(NH)NH2.HCl] | > 91,000 ng/mL | > 91,000 ng/mL | 7,700 ng/mL

— US5914319A, “Antithrombotic agents” (Eli Lilly and Company, priority 1995, dated 1999)
